Assays:
Assay type in all cases: binding
[1] = molecular target: T1, cysteine residue illustrated in Table 1A or Table 2A (Homo sapiens, UniProt Q9Y6I7); assay: Competitive cysteine profiling of cell lysate with desthiobiotin iodoacetamide probe (96-well sample prep); details: UniProt Q9Y6I7; KB02 100 uM
T1 construct: Cells were resuspended in cold PBS on ice and sonicated with a probe sonicator to achieve lysis; endogenous in cells
Method in brief: (§1)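 Competitive profiling: compound and lysate (5 mg/ml protein) incubated 1 h at 25 °C before a 1 h, 25 °C desthiobiotin iodoacetamide probe step. Proteins were acetone-precipitated, reduced, alkylated and trypsinized; streptavidin-captured labelled peptides were eluted for MS analysis.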

UniProt Q96EP0 = molecular target: T2, UniProt Q96EP0 (Homo sapiens, UniProt Q96EP0); assay: Cysteine liganding, probe competition; details: 500 uM
T2 construct: 200 μL of lysate containing 5 mg/ml proteome was treated with 2 μL of 100× compound stock; endogenous in cells
Text: The following 96-well sample prep protocol was used for sample preparation.

[2] = molecular target: T3, cysteine residue illustrated in Table 1A or Table 2A (Homo sapiens, UniProt P55774); assay: Competitive cysteine profiling of cell lysate with desthiobiotin iodoacetamide probe (96-well sample prep); details: UniProt P55774
T3 construct: Cells were resuspended in cold PBS on ice and sonicated with a probe sonicator to achieve lysis; endogenous in cells
Method in brief: as §1

[3] = molecular target: T4, cysteine residue illustrated in Table 1A or Table 2A (Homo sapiens, UniProt P49754); assay: as above; details: UniProt P49754; KB05 100 uM
T4 construct: Cells were resuspended in cold PBS on ice and sonicated with a probe sonicator to achieve lysis; endogenous in cells
Method in brief: as §1

[4] = molecular target: T5, cysteine residue illustrated in Table 1A or Table 2A (Homo sapiens, UniProt Q6ZT12); assay: as above; details: UniProt Q6ZT12; KB05 100 uM
T5 construct: Cells were resuspended in cold PBS on ice and sonicated with a probe sonicator to achieve lysis; endogenous in cells
Method in brief: as §1

[5] = molecular target: T6, cysteine residue illustrated in Table 1A or Table 2A (Homo sapiens, UniProt Q5T4S7); assay: as above; details: UniProt Q5T4S7; KB03 500 uM
T6 construct: Cells were resuspended in cold PBS on ice and sonicated with a probe sonicator to achieve lysis; endogenous in cells
Method in brief: as §1

[6] = molecular target: T7, cysteine residue illustrated in Table 1A or Table 2A (Homo sapiens, UniProt Q9NZJ0); assay: as above; details: UniProt Q9NZJ0; 500 uM
T7 construct: Cells were resuspended in cold PBS on ice and sonicated with a probe sonicator to achieve lysis; endogenous in cells
Method in brief: as §1

[7] = molecular target: T8, cysteine residue illustrated in Table 1A or Table 2A (Homo sapiens, UniProt Q9H0M0); assay: as above; details: UniProt Q9H0M0; KB03 100 uM
T8 construct: Cells were resuspended in cold PBS on ice and sonicated with a probe sonicator to achieve lysis; endogenous in cells
Method in brief: as §1

[8] = molecular target: T9, cysteine residue illustrated in Table 1A or Table 2A (Homo sapiens, UniProt O76080); assay: as above; details: UniProt O76080; KB03 100 uM
T9 construct: Cells were resuspended in cold PBS on ice and sonicated with a probe sonicator to achieve lysis; endogenous in cells
Method in brief: as §1

[9] = molecular target: T10, cysteine residue illustrated in Table 1A or Table 2A (Homo sapiens, UniProt Q15386); assay: as above; details: UniProt Q15386; KB03 100 uM
T10 construct: Cells were resuspended in cold PBS on ice and sonicated with a probe sonicator to achieve lysis; endogenous in cells
Method in brief: as §1

[10] = molecular target: T11, cysteine residue illustrated in Table 1A or Table 2A (Homo sapiens, UniProt O95159); assay: as above; details: UniProt O95159; KB03 100 uM
T11 construct: Cells were resuspended in cold PBS on ice and sonicated with a probe sonicator to achieve lysis; endogenous in cells
Method in brief: as §1

[11] = molecular target: T12, cysteine residue illustrated in Table 1A or Table 2A (Homo sapiens, UniProt Q9UBI1); assay: as above; details: UniProt Q9UBI1; 500 uM
T12 construct: Cells were resuspended in cold PBS on ice and sonicated with a probe sonicator to achieve lysis; endogenous in cells
Method in brief: as §1

T3 sequence (P55774 21-89): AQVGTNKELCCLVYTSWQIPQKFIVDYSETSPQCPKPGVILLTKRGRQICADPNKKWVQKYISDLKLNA
T4 sequence (P49754 whole entry): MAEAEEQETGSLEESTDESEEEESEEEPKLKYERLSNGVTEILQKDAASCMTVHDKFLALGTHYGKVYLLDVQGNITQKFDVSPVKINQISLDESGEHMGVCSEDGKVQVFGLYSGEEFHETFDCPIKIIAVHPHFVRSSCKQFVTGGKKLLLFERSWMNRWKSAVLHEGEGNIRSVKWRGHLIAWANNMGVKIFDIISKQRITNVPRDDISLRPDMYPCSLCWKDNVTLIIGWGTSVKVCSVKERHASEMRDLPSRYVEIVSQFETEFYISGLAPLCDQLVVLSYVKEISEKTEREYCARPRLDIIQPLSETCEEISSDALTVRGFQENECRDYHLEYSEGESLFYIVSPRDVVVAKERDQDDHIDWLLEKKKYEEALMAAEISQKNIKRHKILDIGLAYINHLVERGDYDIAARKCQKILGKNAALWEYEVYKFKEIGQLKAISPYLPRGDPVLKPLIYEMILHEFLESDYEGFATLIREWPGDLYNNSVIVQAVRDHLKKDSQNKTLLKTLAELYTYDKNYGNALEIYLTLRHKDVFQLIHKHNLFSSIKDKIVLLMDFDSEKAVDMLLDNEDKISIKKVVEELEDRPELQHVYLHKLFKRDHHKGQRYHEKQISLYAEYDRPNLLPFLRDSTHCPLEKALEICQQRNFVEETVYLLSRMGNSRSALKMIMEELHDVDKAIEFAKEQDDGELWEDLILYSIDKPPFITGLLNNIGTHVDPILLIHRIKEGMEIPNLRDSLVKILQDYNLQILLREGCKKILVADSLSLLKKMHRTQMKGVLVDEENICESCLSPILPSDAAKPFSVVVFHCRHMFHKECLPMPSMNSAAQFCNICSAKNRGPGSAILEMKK
T10 sequence (Q15386 whole entry): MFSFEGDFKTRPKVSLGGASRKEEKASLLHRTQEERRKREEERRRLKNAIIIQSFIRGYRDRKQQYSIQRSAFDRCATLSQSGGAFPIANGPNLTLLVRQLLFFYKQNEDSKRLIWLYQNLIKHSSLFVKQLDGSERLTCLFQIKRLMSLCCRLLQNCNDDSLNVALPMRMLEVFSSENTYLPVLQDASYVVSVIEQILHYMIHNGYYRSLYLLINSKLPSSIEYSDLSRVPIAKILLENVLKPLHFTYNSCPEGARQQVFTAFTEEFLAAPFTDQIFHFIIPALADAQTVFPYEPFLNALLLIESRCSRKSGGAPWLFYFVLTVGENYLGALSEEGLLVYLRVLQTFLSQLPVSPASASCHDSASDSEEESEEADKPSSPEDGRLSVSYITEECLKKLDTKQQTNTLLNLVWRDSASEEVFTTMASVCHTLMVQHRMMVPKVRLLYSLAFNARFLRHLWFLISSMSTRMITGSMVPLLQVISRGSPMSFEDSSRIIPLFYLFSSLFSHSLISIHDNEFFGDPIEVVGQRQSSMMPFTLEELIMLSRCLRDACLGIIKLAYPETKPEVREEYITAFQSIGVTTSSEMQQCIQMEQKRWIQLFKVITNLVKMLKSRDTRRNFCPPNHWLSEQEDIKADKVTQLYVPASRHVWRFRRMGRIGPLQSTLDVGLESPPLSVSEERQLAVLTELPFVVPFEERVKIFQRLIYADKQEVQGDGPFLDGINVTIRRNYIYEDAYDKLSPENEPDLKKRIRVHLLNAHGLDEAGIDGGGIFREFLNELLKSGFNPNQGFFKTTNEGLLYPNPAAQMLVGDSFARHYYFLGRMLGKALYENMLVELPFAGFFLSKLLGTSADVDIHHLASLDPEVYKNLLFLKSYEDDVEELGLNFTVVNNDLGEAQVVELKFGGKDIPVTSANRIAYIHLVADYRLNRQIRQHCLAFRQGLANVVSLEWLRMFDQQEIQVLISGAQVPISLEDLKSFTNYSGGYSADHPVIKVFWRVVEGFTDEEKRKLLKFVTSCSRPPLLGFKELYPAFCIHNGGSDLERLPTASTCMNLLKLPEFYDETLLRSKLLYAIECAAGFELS
T1 sequence (Q9Y6I7 whole entry): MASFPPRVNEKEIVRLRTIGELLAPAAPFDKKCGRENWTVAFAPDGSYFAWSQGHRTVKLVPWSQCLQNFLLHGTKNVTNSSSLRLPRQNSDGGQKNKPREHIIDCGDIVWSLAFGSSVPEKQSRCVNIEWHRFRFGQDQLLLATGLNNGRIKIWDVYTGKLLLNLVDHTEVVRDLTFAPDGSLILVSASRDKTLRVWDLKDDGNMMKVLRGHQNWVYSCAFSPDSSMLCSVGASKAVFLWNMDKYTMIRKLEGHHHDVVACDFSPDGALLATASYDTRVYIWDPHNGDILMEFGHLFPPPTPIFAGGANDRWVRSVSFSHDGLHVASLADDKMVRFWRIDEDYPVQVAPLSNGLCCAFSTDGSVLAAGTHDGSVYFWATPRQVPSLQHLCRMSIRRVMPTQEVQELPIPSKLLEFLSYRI
T2 sequence (Q96EP0 whole entry, change not shown): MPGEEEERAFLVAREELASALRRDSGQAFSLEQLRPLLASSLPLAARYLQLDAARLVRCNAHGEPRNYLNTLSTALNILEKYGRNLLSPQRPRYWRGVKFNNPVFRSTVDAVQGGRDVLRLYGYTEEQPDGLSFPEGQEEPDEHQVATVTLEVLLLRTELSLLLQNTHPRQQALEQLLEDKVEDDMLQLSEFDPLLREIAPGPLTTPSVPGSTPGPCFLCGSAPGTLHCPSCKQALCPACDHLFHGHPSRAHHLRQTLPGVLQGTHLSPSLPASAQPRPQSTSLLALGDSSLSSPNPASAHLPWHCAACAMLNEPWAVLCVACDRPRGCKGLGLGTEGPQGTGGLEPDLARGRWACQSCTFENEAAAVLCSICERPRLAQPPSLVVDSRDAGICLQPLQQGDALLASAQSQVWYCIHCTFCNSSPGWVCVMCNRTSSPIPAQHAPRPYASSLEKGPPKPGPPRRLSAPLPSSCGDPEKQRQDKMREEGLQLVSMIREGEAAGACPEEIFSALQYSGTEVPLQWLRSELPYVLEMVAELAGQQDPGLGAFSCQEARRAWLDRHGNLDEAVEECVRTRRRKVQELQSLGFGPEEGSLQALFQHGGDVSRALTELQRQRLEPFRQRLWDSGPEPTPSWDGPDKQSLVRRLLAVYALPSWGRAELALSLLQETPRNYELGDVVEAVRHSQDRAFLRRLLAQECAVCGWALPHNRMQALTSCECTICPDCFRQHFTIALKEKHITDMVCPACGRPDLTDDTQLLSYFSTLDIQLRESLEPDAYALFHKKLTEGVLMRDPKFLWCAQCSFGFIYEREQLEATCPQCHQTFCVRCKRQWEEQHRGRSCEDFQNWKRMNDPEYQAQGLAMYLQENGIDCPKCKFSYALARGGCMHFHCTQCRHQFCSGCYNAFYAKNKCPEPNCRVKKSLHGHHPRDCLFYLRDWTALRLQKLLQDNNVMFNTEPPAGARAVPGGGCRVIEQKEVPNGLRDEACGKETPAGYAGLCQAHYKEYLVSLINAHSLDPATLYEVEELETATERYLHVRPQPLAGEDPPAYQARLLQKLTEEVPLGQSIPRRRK
T11 sequence (O95159 whole entry): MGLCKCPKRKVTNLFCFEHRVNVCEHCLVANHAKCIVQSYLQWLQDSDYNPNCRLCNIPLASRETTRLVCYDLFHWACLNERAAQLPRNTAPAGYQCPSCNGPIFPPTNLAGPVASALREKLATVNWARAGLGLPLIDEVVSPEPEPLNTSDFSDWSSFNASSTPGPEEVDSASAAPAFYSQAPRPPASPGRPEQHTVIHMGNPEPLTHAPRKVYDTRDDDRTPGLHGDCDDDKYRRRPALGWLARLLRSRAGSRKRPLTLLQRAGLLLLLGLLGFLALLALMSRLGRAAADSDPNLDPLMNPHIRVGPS
T12 sequence (Q9UBI1 whole entry): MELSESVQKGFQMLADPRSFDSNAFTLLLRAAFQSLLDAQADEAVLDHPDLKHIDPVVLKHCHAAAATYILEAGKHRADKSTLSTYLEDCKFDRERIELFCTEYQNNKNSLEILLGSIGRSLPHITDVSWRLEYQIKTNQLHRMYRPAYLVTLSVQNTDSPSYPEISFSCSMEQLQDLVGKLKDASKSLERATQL
T8 sequence (Q9H0M0 whole entry): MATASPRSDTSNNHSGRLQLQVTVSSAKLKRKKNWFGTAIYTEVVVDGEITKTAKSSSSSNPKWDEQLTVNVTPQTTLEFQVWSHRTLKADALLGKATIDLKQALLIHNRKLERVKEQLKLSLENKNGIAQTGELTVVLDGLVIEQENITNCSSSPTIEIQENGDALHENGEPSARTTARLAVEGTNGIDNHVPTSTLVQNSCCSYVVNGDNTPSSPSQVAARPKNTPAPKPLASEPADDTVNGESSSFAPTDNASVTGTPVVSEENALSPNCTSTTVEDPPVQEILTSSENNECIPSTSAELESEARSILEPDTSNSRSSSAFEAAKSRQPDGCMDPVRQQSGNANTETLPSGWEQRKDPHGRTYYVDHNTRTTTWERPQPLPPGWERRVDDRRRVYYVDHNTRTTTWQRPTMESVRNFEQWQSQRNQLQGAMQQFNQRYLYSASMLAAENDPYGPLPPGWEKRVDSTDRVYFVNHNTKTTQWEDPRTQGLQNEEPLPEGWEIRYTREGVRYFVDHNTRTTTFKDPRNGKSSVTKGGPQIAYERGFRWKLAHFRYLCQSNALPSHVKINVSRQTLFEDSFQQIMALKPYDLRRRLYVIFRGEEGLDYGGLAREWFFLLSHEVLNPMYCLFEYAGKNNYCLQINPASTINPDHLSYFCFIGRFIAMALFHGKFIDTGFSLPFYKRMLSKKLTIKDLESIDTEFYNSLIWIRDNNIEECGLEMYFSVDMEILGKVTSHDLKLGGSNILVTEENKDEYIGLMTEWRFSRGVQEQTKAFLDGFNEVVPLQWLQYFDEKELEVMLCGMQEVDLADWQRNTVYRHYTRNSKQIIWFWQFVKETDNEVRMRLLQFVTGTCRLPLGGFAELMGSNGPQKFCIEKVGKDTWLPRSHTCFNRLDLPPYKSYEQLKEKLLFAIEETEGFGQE

Compound: COc1ccc2c(c1)CCCN2C(=O)CCl [KB02]
- KB02_100 uM_percent_inhibition [1]: 5%
- percent_inhibition (UniProt Q96EP0): 24%

Compound: C=CC(=O)N(c1ccccc1)c1ccc(Br)cc1 [KB05]
- KB05_100 uM_percent_inhibition ([2]; 100 uM): 5%
- KB05_500 uM_percent_inhibition ([2]; 500 uM): 51%
- KB05_100 uM_percent_inhibition [3]: 10%
- KB05_100 uM_percent_inhibition [4]: 41%

Compound: O=C(CCl)Nc1cc(C(F)(F)F)cc(C(F)(F)F)c1 [KBO3]
- KB03_500 uM_percent_inhibition [5]: 69%
- KB03_500 uM_percent_inhibition [6]: 69%
- KB03_100 uM_percent_inhibition [7]: 61%
- KB03_100 uM_percent_inhibition [8]: 14%
- KB03_100 uM_percent_inhibition [9]: 16%
- KB03_100 uM_percent_inhibition [10]: 15%
- KB03_500 uM_percent_inhibition [11]: 29%

— patent publication US20200239530A1, “COMPOUNDS AND METHODS OF MODULATING PROTEIN DEGRADATION” (Vividion Therapeutics, Inc., priority 2017, published 2020)
